ChEMBL document CHEMBL4316588, “Design, Synthesis, and Biological Evaluation of Novel DNA Gyrase-Inhibiting Spiropyrimidinetriones as Potent Antibiotics for Treatment of Infections Caused by Multidrug-Resistant Gram-Positive Bacteria” (J Med Chem, 2019)
Converted amounts (≈) assume the structure as drawn.

Assays:
[1] = tested on: Staphylococcus aureus; assay: Antibacterial activity against methicillin-sensitive Staphylococcus aureus after 18 to 20 hrs by CLSI-protocol based broth microdilution method; format: functional; conditions: Staphylococcus aureus; read-out: MIC
[2] = tested on: Staphylococcus aureus; assay: Antibacterial activity against methicillin-resistant Staphylococcus aureus after 18 to 20 hrs by CLSI-protocol based broth microdilution method; format: functional
[3] = tested on: Staphylococcus epidermidis; assay: Antibacterial activity against methicillin-sensitive Staphylococcus epidermidis after 18 to 20 hrs by CLSI-protocol based broth microdilution method; format: functional
[4] = tested on: Staphylococcus epidermidis; assay: Antibacterial activity against methicillin-resistant Staphylococcus epidermidis after 18 to 20 hrs by CLSI-protocol based broth microdilution method; format: functional
[5] = tested on: Streptococcus pneumoniae; assay: Antibacterial activity against penicillin-resistant Streptococcus pneumoniae after 18 to 20 hrs by CLSI-protocol based broth microdilution method; format: functional
[6] = tested on: Streptococcus pyogenes; assay: Antibacterial activity against Streptococcus pyogenes after 18 to 20 hrs by CLSI-protocol based broth microdilution method; format: functional; conditions: Streptococcus pyogenes; read-out: MIC
[7] = tested on: Neisseria gonorrhoeae; assay: Antibacterial activity against Neisseria gonorrhoeae after 18 to 20 hrs by CLSI-protocol based agar microdilution method; format: functional
[8] = AUCt in CD1 mouse at 10 mg/kg, po by LC-MS/MS analysis; format: ADME, organism-based; conditions: in vivo
[9] = MRT in CD1 mouse at 10 mg/kg, po by LC-MS/MS analysis; format: ADME, organism-based; conditions: in vivo
[10] = Cmax in CD1 mouse at 10 mg/kg, po by LC-MS/MS analysis; format: ADME, organism-based; set-up: dose 10 mg/kg, route oral; conditions: in vivo
[11] = Tmax in CD1 mouse at 10 mg/kg, po by LC-MS/MS analysis; format: ADME, organism-based; conditions: in vivo
[12] = Elimination half life in CD1 mouse at 10 mg/kg, po by LC-MS/MS analysis; format: ADME, organism-based; conditions: in vivo, read-out: beta t1/2 (converted)
[13] = Solubility of the compound in pH 6.8 intestinal juice incubated at 37 degC for 24 hrs by LC/MS/MS analysis; format: physicochemical
[14] = Solubility of the compound in pH 1.2 gastric juice incubated at 37 degC for 24 hrs by LC/MS/MS analysis; format: physicochemical
[15] = Solubility of the compound in water incubated at 37 degC for 24 hrs by LC/MS/MS analysis; format: physicochemical
[16] = biological target: DNA topoisomerase 2-alpha (Homo sapiens, UniProt P11388); assay: Inhibition of human topoisomerase-2alpha using catenated DNA as substrate after 30 mins by ethidium bromide-based gel electrophoresis
[17] = tested on: Staphylococcus aureus; assay: Antibacterial activity against methicillin-sensitive Staphylococcus aureus infected in Kunming mouse treated with 50 mg/kg cytochrome P450 inhibitor ABT dosed subcutaneously at 0.5 and 4.0 hrs postinfection followed by and measured at 7 to 14 days post treatment by Bliss method; format: functional; conditions: sc
[18] = tested on: Staphylococcus aureus; assay: Antibacterial activity against methicillin-resistant Staphylococcus aureus infected in Kunming mouse treated with 50 mg/kg cytochrome P450 inhibitor ABT dosed subcutaneously at 0.5 and 4.0 hrs postinfection followed by and measured at 7 to 14 days post treatment by Bliss method; format: functional; conditions: sc
[19] = biological target: DNA gyrase (Staphylococcus aureus, UniProt P0A0K8+P20831)
Sequence of DNA gyrase (P0A0K8 whole entry): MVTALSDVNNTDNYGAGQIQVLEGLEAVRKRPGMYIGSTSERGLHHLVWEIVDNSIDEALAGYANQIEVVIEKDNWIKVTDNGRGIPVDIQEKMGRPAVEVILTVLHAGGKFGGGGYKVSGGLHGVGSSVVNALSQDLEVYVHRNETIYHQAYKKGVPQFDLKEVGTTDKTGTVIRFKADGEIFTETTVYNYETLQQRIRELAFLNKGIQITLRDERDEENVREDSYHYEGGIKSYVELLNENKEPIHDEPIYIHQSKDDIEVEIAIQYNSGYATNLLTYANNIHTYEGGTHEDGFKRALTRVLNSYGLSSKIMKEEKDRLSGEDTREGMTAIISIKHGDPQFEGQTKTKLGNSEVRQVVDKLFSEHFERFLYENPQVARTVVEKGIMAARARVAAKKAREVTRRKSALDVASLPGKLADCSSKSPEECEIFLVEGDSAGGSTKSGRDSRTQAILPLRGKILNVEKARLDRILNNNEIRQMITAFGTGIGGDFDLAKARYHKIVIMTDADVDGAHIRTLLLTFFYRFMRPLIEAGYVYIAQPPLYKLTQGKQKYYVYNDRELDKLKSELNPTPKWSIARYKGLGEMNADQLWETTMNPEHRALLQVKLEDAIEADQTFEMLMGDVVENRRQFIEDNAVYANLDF
Sequence of DNA gyrase (P20831 whole entry): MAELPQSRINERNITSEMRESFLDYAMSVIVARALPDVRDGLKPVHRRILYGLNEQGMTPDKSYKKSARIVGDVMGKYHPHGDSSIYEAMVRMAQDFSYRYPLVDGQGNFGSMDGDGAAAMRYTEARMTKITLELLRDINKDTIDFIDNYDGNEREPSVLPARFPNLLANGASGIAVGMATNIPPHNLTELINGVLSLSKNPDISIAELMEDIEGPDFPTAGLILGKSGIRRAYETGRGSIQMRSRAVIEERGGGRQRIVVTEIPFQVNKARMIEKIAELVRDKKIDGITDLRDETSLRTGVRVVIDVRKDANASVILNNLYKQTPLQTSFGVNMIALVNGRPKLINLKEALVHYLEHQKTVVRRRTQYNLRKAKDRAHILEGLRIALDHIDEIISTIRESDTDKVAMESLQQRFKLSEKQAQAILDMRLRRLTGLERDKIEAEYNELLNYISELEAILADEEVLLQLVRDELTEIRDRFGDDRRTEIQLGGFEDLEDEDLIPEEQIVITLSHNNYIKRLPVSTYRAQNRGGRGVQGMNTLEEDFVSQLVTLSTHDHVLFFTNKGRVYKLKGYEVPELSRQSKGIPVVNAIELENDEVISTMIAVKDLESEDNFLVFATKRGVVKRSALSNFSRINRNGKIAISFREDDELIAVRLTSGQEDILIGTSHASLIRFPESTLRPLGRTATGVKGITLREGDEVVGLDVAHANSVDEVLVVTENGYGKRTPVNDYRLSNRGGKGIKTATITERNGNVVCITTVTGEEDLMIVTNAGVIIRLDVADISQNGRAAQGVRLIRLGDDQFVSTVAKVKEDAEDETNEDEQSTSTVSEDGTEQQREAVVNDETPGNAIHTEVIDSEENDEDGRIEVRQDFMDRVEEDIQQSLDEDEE
Description: Inhibition of Staphylococcus aureus DNA gyrase supercoiling activity using relaxed pHOT-1 DNA as substrate after 60 mins by ethidium bromide-based gel electrophoresis

Sequence of DNA topoisomerase 2-alpha (P11388 whole entry): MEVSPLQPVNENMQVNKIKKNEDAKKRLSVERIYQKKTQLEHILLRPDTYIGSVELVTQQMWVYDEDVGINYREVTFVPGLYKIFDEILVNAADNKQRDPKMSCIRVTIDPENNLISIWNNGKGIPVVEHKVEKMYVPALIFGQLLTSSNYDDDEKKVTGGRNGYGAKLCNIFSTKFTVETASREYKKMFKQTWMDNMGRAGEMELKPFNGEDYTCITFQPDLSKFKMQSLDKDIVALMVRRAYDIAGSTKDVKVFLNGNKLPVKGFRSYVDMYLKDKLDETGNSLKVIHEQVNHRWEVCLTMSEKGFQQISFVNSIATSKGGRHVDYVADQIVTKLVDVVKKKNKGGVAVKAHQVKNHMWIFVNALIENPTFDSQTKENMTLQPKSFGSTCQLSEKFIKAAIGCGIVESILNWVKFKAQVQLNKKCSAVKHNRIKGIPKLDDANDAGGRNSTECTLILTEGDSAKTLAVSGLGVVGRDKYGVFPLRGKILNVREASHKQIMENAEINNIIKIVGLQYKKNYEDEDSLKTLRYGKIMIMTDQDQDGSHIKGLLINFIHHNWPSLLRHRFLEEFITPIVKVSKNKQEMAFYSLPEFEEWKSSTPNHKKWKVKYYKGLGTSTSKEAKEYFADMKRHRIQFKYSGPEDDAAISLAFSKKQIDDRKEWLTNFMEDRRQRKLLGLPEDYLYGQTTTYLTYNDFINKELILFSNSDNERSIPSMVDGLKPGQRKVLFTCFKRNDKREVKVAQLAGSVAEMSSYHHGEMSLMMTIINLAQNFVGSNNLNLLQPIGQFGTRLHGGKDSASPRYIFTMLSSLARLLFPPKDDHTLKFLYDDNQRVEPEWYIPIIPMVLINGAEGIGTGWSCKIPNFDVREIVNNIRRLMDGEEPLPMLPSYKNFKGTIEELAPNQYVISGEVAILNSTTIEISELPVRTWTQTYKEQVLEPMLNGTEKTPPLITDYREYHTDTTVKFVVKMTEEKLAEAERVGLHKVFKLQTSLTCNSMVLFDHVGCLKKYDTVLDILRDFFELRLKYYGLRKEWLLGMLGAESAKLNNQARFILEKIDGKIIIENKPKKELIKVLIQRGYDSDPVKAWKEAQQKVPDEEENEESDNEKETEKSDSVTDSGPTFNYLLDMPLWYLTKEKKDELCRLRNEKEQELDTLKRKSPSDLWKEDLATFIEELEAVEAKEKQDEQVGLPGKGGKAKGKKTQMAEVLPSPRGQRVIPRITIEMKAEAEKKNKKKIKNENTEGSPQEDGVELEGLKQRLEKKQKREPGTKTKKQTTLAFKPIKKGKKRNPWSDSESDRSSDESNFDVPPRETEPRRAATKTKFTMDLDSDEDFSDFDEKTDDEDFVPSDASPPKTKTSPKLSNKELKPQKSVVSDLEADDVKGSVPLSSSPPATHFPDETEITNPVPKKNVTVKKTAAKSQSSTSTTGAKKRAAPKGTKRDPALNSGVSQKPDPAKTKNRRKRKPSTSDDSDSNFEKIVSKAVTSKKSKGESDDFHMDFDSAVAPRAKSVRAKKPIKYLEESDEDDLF

**Q.** Which MIC [1] does the source give for `C[C@@H]1CN2c3c(cc4c(N5CCOC5=O)noc4c3F)CC3(C(=O)NC(=O)NC3=O)[C@H]2[C@H](C)O1` here?
**A.** 0.125 to 0.25 µg/mL (≈ 0.264 to 0.528 µM)

**Q.** What about the MIC [2] of the same compound?
**A.** 0.03 to 1 µg/mL (≈ 0.0634 to 2.11 µM)

**Q.** What about the MIC [3] of the same compound?
**A.** 0.06 to 0.25 µg/mL (≈ 0.127 to 0.528 µM)

**Q.** What about the MIC [4] of the same compound?
**A.** 0.03 to 0.25 µg/mL (≈ 0.0634 to 0.528 µM)

**Q.** And the MIC [5]?
**A.** 0.25 to 1 µg/mL (≈ 0.528 to 2.11 µM)

**Q.** And the MIC [6]?
**A.** 0.25 to 0.5 µg/mL (≈ 0.528 to 1.06 µM)

**Q.** What about the MIC50 [7] of the same compound?
**A.** 0.03 µg/mL (≈ 0.0634 µM)

**Q.** And the MIC90 [7]?
**A.** 0.125 µg/mL (≈ 0.264 µM)

**Q.** And the AUC(0-t) [8]?
**A.** 748 ng·h/mL

**Q.** What about the MRT [9] of the same compound?
**A.** 7.06 h

**Q.** And the Cmax [10]?
**A.** 183 ng/mL

**Q.** And the Tmax [11]?
**A.** 0.58 h

**Q.** And the half-life [12]?
**A.** 3.41 h

**Q.** And the solubility at 24 h [13]?
**A.** 139 µM (≈ 65.8 µg/mL)

**Q.** What about the solubility at 24 h [14] of the same compound?
**A.** 121 µM (≈ 57.3 µg/mL)

**Q.** And the solubility at 24 h [15]?
**A.** 128 µM (≈ 60.6 µg/mL)

**Q.** And the IC50 [16]?
**A.** > 200 µM

**Q.** What about the ED50 [17] of the same compound?
**A.** 11 mg/kg

**Q.** What about the ED50 [18] of the same compound?
**A.** 11.5 mg/kg

**Q.** What about the IC50 [19] of the same compound?
**A.** 24.3 µM
